The source of these data is patent US20230271956A1, “AMIDE DERIVATIVES” (Merck Patent GmbH, priority 2020, published 2023).

The structures appear in SMILES notation. pIC50: −log10 of the molar value.

Assay [1] concerns the target T1, human rec ACSS2 (Homo sapiens, UniProt Q9NR19).
T1 construct: myc (C); purchased Origene
Put plainly: Biochemical activity ACSS2 assay (AMP-Glo). To be noted: human recombinant ACSS2, AMP-Glo, 180 min at 37° C. The gist of the method:
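C-terminal myc-tagged human recombinant ACSS2 (1 nM) reacted with 100 µM ATP, 100 µM CoA and 500 µM acetate (final) in pH 7.5 Hepes buffer for 180 min at 37° C, compound in 10 concentrations from 30 µM. Released AMP detected by AMP-Glo luminescence. IC50 normalised to inhibitor-free reaction and 5 µM reference inhibitor.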

Assay [2] concerns the target T2, ACSS2 (Homo sapiens, UniProt Q9NR19).
T2 construct: endogenous fatty acid synthesis activity in the human HCT-15 cancer cell line; endogenous in cells; host or cells: HCT-15
Put plainly: Cellular assay of 14C acetate incorporation into fatty acids (IC50 ACSS2 cellular lipids). The assay is classed as cell-based. The settings on record: HCT-15 cells. Put shortly:
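Human HCT-15 cells, 24 h on collagen, pre-incubated with compound 2 h at 37 °C in RPMI 1640/10 mM HEPES (≤0.1% DMSO), then 2 h with 14C-acetate plus AlamarBlue as viability check. Lysis at 70 °C, acidified fatty acids captured on scintillant plates; 14C incorporation counted as CPM.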

T1 sequence (Q9NR19 whole entry): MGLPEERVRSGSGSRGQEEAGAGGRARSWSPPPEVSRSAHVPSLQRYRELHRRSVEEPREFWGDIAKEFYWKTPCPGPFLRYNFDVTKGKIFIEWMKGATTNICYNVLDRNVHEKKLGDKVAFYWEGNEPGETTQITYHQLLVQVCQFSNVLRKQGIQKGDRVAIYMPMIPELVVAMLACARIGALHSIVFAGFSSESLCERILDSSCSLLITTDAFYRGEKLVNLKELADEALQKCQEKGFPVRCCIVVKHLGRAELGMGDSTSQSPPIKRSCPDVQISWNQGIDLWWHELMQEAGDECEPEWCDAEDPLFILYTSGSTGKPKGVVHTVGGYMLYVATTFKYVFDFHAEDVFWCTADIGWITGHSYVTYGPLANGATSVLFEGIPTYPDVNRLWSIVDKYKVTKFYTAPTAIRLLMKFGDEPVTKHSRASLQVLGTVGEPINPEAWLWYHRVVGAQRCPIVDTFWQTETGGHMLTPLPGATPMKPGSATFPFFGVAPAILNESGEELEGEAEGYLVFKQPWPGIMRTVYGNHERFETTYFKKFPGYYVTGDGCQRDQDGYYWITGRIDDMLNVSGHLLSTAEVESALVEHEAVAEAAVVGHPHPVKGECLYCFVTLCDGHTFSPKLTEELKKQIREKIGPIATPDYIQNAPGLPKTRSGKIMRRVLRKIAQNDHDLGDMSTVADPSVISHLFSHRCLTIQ
T2 sequence (Q9NR19 whole entry): as above

What is called pIC50 is the IC50 on a negative log10 scale, so that one unit is a factor of ten. With `CCc1c(C(O)(c2ccccc2)c2ccccc2)nc2cc(OC)c(C(=O)Nc3ncn(CC)n3)cn12` [Compound 24, 3-Ethyl-2-(hydroxy-diphenyl-methyl)-7-methoxy-imidazo[1,2-a]pyridine-6-carboxylic acid (1-ethyl-1H-[1,2,4]triazol-3-yl)-amide], the pIC50 in assay [1] and in assay [2] was 8.00 to 9.00 each time.
Consider `CCc1c(C(O)(c2ccccc2)c2ccccc2)nn2ccc(C(=O)Nc3ncn(CC)n3)cc12` [Compound 9, 3-Ethyl-2-(hydroxy-diphenyl-methyl)-pyrazolo[1,5-a]pyridine-5-carboxylic acid (1-ethyl-1H-[1,2,4]triazol-3-yl)-amide], for which the pIC50 is 8.00 to 9.00 in assay [1] and 9.00 to 11.00 in assay [2].
On the same counts, the results for `CCn1cnc(NC(=O)c2cc3c(nc2OC)nc(C(O)(c2ccccc2)c2ccccn2)n3CC)n1` (single isomer, unassigned) [Compound 53, 1-ethyl-N-(1-ethyl-1H-1,2,4-triazol-3-yl)-2-[hydroxy(phenyl)(pyridin-2-yl)methyl]-5-methoxy-1H-imidazo[4,5-b]pyridine-6-carboxamide] are 8.00 to 9.00 and 9.00 to 11.00.
`CCc1c(C(O)(c2ccccc2)c2ccccc2)nc2cc(Cl)c(C(=O)Nc3ncn(CC)n3)cn12` [Compound 14, 7-Chloro-3-ethyl-2-(hydroxy-diphenylmethyl)-imidazo[1,2-a]pyridine-6-carboxylic acid (1-ethyl-1H-[1,2,4]triazol-3-yl)-amide]: the negative logarithm of the IC50 (pIC50) in assay [1] and in assay [2] was 8.00 to 9.00 in each case.
Turning to `CCn1cnc(NC(=O)c2cc3c(nc2OC)nc(C(O)(c2ccccc2)c2ccccc2)n3CC)n1` [Compound 103, 1-ethyl-N-(1-ethyl-1H-1,2,4-triazol-3-yl)-2-(hydroxydiphenylmethyl)-5-methoxy-1H-imidazo[4,5-b]pyridine-6-carboxamide], the negative logarithm of the IC50 (pIC50) in assay [1] and in assay [2] was 8.00 to 9.00 in each case.
Take `CCn1cnc(NC(=O)c2cc3c(nc2F)nc(C(O)(c2ccccc2)c2ccccc2)n3CC)n1` [Compound 89, 1-ethyl-N-(1-ethyl-1H-1,2,4-triazol-3-yl)-5-fluoro-2-(hydroxydiphenylmethyl)-1H-imidazo[4,5-b]pyridine-6-carboxamide]: the pIC50 in assay [1] and in assay [2] was 8.00 to 9.00 throughout.
As to `CCc1c(C(O)(c2ccccc2)c2ccccc2)nn2cc(OC)c(C(=O)Nc3ncn(CC)n3)cc12` [Compound 11, 3-Ethyl-2-(hydroxy-diphenyl-methyl)-6-methoxy-pyrazolo[1,5-a]pyridine-5-carboxylic acid (1-ethyl-1H-[1,2,4]triazol-3-yl)-amide], the pIC50 in assay [1] and in assay [2] was 8.00 to 9.00 throughout.
Regarding `CCc1c(C(O)(c2ccccc2)c2ccccc2)nc2ccc(C(=O)Nc3ncn(CC)n3)cn12` [Compound 25, 3-Ethyl-2-(hydroxy-diphenyl-methyl)-imidazo[1,2-a]pyridine-6-carboxylic acid (1-ethyl-1H-[1,2,4]triazol-3-yl)-amide], the negative-log IC50 (pIC50) in assay [1] and in assay [2] was 8.00 to 9.00 each time.
Consider `CCc1c(C(O)(c2ccccc2)c2ccccc2)nc2cc(Cl)c(C(=O)Nc3cnn(CC)c3)cn12` [Compound 19, 7-Chloro-3-ethyl-2-(hydroxy-diphenylmethyl)-imidazo[1,2-a]pyridine-6-carboxylic acid (1-ethyl-1H-pyrazol-4-yl)-amide], for which the negative logarithm of the IC50 (pIC50) in assay [1] and in assay [2] was 7.00 to 8.00 in each case.
For `CCc1c(C(O)(c2ccccc2F)c2ccccc2F)nc2cc(Cl)c(C(=O)Nc3ncn(CC)n3)cn12` [Compound 31, 2-[Bis-(2-fluoro-phenyl)-hydroxy-methyl]-7-chloro-3-ethyl-imidazo[1,2-a]pyridine-6-carboxylic acid (1-ethyl-1H-[1,2,4]triazol-3-yl)-amide], the pIC50 in assay [1] and in assay [2] was 8.00 to 9.00 in each case.
